These results are taken from US8835442B2, “3-substituted 7-imino-2-thioxo-3, 7-dihydro-2H-thiazolo [4,5-di pyrimidin-6-yl—and process for preparation thereof” (Council of Scientific & Industrial Research, priority 2009, dated 2014).

In general, melting point refers to the temperature of the solid-liquid transition. Usually Ki stands for the dissociation constant of the complex between target and ligand, obtained from inhibition or displacement.

In one data set the target is T1, A2A receptor (Homo sapiens, UniProt P29274).
T1 construct: host or cells: HEK 293
As to the kind of experiment: cAMP functional assay in forskolin-pretreated HEK 293 cells. The class given is cell-based. Particulars: 25 μM forskolin 2 h, then 100 nM compound for 24 h. The procedure: To determine the modulation in cAMP concentrations, cells were pre-treated with Forskolin. Forskolin is commonly used to activate adenylyl cyclase, so as to raise the levels of cAMP, in the various cell physiology experiments. […] Cells were washed with ice-cold PBS (pH 7.4). Further, cells were treated with 0.1M HCl, incubated for 10 minutes and visually inspected to verify cell lysis. Lysed cells were centrifuged at 1000 rpm at room temperature and the supernatant was used directly for cAMP assay using direct cAMP assay kit. All standards and samples were run in duplicate. 50 μl of the neutralizing reagent was added into each well of 96-well microplate coated with goat anti-rabbit IgG antibody, except the total activity (TA) and blank wells. Again, 100 μl of HCl (0.1M) was added into the NSB (Non-specific bound) and the Bo (0 pmol/ml standard) Wells: 100 μl of standards 1 to 5 was pippeted into the appropriate wells. 50 μl of 0.1M HCl was added into the NSB wells, followed by 50 μl of blue conjugate (alkaline phosphatase conjugated with cAMP) into each well except the TA and blank wells. 50 μl of yellow coloured primary antibody against cAMP into each well, except the blank, TA and NSB wells. Microplate was incubated at room temperature for 2 hours on a plate shaker. Wells were washed twice with 400 μl of wash solution. 5 μl of blue conjugate was added to the TA wells, followed by the addition of 200 μl of p-nitrophenyl phosphate substrate solution to every well. Plate was again incubated for 1 hour without shaking. Reaction was stopped by adding 50 μl of stop solution to every well.
The average net O.D. bound for each standard and sample was calculated using formula; Average Net OD=Average bound OD−Average NSB OD
The binding of each pair of standard wells as a percentage of the maximum binding well (Bo) was calculated using the formula; Percent Bound=Net OD/Net Bo OD×100
Standard curve was prepared using Logit-Log Paper plot by drawing percent bound (B/Bo) versus concentration of cAMP for the standards. The concentration of the cAMP in the samples was determined by interpolation.
Binding parameters were estimated by the computerized non-linear fitting program Graph Pad (Prism 4.0). […] Data were expressed as geometric means with 95% confidence limits in parentheses. Estimation of cAMP concentrations in functional assay was carried by Student's paired t-test. P<0.05 was considered significant. All analysis was performed by using GraphPad Prism 4.0 (GraphPad Software, San Diego, USA). Results are given, as mean±S.E.M

The next data set addresses T2, human A1R (Homo sapiens, UniProt P30542).
T2 sequence (P30542 1-326): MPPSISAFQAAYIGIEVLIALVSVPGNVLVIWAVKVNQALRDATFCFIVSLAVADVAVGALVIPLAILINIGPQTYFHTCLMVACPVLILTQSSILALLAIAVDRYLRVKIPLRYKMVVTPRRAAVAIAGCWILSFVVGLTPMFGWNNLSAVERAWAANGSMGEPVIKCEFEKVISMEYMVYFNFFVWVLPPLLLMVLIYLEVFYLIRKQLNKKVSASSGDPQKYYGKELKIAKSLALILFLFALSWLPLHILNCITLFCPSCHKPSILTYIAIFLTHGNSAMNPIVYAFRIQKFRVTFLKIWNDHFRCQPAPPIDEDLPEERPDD
Put plainly: Competitive radioligand binding assay, [3H] DPCPX, membranes of HEK 293 cells stably expressing human A1R.

Another data set deals with human A2AR (Homo sapiens, UniProt P29274). As to the kind of experiment: Competitive radioligand binding assay, [3H] ZM 241385, membranes of HEK 293 cells stably expressing human A2AR. Particulars: for selectivity over A1 adenosine receptor: A2AR versus A1R binding; for hA1/hA2A ratio: selectivity: Ki hA1 / Ki hA2A.
Setting [1] is: read-out: hA1 binding Ki ± SD, displacement of 0.75 nM [3H] DPCPX, HEK 293 membranes, test compounds 1 pM to 1 μM.
Where [2] appears, read: read-out: hA2A binding Ki ± SD, displacement of 1 nM [3H] ZM 241385, HEK 293 membranes, test compounds 1 pM to 1 μM.

Like-named read-outs stand apart in the source and are kept apart here.

Sequence of human A2AR (P29274 whole entry): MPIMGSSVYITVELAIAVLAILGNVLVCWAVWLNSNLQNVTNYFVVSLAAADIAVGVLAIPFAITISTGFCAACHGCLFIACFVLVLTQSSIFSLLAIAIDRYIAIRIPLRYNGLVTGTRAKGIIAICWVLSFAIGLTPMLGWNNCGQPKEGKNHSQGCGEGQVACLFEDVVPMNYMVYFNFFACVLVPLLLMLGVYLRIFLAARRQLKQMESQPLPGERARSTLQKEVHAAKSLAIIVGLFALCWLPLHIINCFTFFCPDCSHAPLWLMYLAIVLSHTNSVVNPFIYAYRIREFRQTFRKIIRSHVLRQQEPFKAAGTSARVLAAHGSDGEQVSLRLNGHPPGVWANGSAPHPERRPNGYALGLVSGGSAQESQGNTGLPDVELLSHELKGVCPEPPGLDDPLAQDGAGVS
T1 sequence (P29274 whole entry): as above
Description for human A1R: (§1) Aliquots of membrane proteins from both A2AR and A1R were rapidly frozen and stored at −20° C.
(§2) About 10 μg of membrane protein was added to each well of multiscreen 96-well plate equipped with GF/B filters. Incubation buffer (50 mM Tris, 1 mM EDTA, pH 7.4) containing adenosine deaminase (1 U/ml) was added to each well to remove endogenous adenosine bound to the receptors and volume was adjusted to 100 μl by adding incubation buffer. Plate was incubated at 37° C. for 1 hour. […] Final volume was adjusted to 200 μl by adding incubation buffer and incubated at 26° C. for 30 minutes. Binding reaction was terminated by rapid filteration of filter plates using vacuum manifold system. Filterate (unbound radioligand) was collected in a 96-well plate laying down the filter plate. Filters were washed three times with ice-cold washing buffer (50 mM Tris-Cl; 2.5 mM MgCl2 pH 7.4). Finally, 100 μl of scintillation fluid was added to all wells of plate containing unbound filtrate as well as to the filter plate (bound radioligand) and incubated overnight at room temperature. […] DPCPX were read using β-counter.
(§3) About 10 μg of membrane protein was added to each well of a 96-well filter plate. Incubation buffer containing adenosine deaminase (1 U/ml) was added to the membrane protein and incubated at 37° C. for 1 hour, to remove endogenous adenosine. […] Filter plates were incubated at 26° C. for 30 minutes and reaction was terminated by rapid filtration of unbound radioligands. Filters containing ligand bound receptors were washed three times with ice-cold washing buffer to completely remove any unbound radioligand or receptor. Finally, 100 μl of scintillation fluid was added to each well and incubated overnight at room temperature. β-counts emitted from bound radioligands ([^3H] ZM241385 and [^3H] DPCPX) were counted using β-counter. Duplicate values of β-counts per minute at corresponding concentrations (1 pM to 1 μM) were added to the data sheet of graph pad prism 4.0. Concentration values were considered as X-values and counts per minute were considered as Y-values (in duplicate). X-values were transformed into logX and Ki value was calculated using nonlinear regression (curve fit program).
(§4) Binding parameters were estimated by the computerized non-linear fitting program Graph Pad (Prism 4.0). […] Data were expressed as geometric means with 95% confidence limits in parentheses. […] P<0.05 was considered significant. All analysis was performed by using GraphPad Prism 4.0 (GraphPad Software, San Diego, USA). Results are given, as mean±S.E.M
Description for human A2AR: as §1, §2, §3, §4

As to `N=c1c2sc(=S)n(-c3ccc(I)cc3)c2ncn1NC(N)=O` [Compound 20, (3-p-iodophenyl-7-imino-2-thioxo-3,7-dihydro-2H-thiazolo[4,5-d]pyrimidin-6-yl)-urea], the melting point turned out to be 235 °C. For the same compound, the cAMP concentration at A2A receptor is 0.076 nM. Further, the Ki on human A1R was 2500 ± 1100 pM. In addition, on human A2AR, the affinity corresponds to a Ki of 17 ± 10 pM, the “selectivity over A1 adenosine receptor” value was 144 fold and the hA1/hA2A ratio was determined as 147.06.

Turning to `N=c1c2sc(=S)n(-c3ccccc3)c2ncn1NC(N)=O` [Compound 19, (7-Imino-3-phenyl-2-thioxo-3,7-dihydro-2H-thiazolo[4,5-d]pyrimidin-6-yl)-urea], the melting point worked out at 225 °C. Further, the cAMP concentration on A2A receptor worked out at 0.078 nM. For the same compound, the Ki at human A1R came out at 1500 ± 1100 pM. In addition, at human A2AR, the affinity corresponds to a Ki of 63 ± 8 pM and the hA1/hA2A ratio is reported as 23.81.

Regarding `CCn1c(=S)sc2c(=N)n(NC(N)=O)cnc21` [Compound 15, (3-Ethyl-7-imino-2-thioxo-3,7-dihydro-2H-thiazolo[4,5-d]pyrimidin-6-yl)-urea], the melting point is 212 °C. Further, the cAMP concentration at A2A receptor came to 0.085 nM. In addition, on human A2AR, the inhibition constant (Ki) is 90 ± 10 pM and the hA1/hA2A ratio is recorded as 0.00177.

As for `CCCCn1c(=S)sc2c(=N)n(NC(=O)c3ccco3)cnc21` [Compound 24, Furan-2-carboxylic acid (3-butyl-7-imino-2-thioxo-3,7-dihydro-2H-thiazolo[4,5-d]pyrimidin-6-yl)-amide], the melting point worked out at 210 °C. On A2A receptor, the cAMP concentration was found to be 0.06 nM. Besides, the Ki at human A1R is 5.3 ± 1 pM. In addition, at human A2AR, the Ki is 29 ± 10 pM and the hA1/hA2A ratio stood at 0.183.

The compound `CCn1c(=S)sc2c(=N)n(NC(=O)c3ccco3)cnc21` [Compound 22, Furan-2-carboxylic acid (3-ethyl-7-imino-2-thioxo-3,7-dihydro-2H-thiazolo[4,5-d]pyrimidin-6-yl)-amide] yielded a melting point of 226 °C. In addition, the cAMP concentration on A2A receptor was 0.12 nM. The compound further returned a Ki on human A1R of 16 ± 10 pM. Moreover, on human A2AR, the inhibitory constant (Ki) came out at 1200 ± 1100 pM and the hA1/hA2A ratio turned out to be 0.0133.

As to `CCCn1c(=S)sc2c(=N)n(NC(=O)c3ccco3)cnc21` [Compound 23, Furan-2-carboxylic acid (7-imino-3-propyl-2-thioxo-3,7-dihydro-2H-thiazolo[4,5-d]pyrimidin-6-yl)-amide], the melting point was found to be 206 °C. Also, at A2A receptor, the cAMP concentration was 0.092 nM. For the same compound, at human A1R, the affinity corresponds to a Ki of 87 ± 50 pM. For the same compound, on human A2AR, the inhibition constant (Ki) amounted to 24 ± 10 pM and the hA1/hA2A ratio is listed as 3.625.

Turning to `N=c1c2sc(=S)n(-c3ccccc3)c2ncn1NC(=O)c1ccco1` [Compound 26, Furan-2-carboxylic acid (7-imino-3-phenyl-2-thioxo-3,7-dihydro-2H-thiazolo[4,5-d]pyrimidin-6-yl)-amide], the melting point was 228 °C. In addition, the cAMP concentration at A2A receptor is 0.048 nM. In addition, on human A1R, the affinity corresponds to a Ki of 8.5 ± 1 pM. On human A2AR, the inhibitory constant (Ki) came out at 330 ± 750 pM and the hA1/hA2A ratio came to 0.026.

In turn, `N=c1c2sc(=S)n(Cc3ccccc3)c2ncn1NC(N)=O` [Compound 21, (3-Benzyl-7-imino-2-thioxo-3,7-dihydro-2H-thiazolo[4,5-d]pyrimidin-6-yl)-urea] came in with a melting point of 190 °C. Moreover, the cAMP concentration at A2A receptor stood at 0.067 nM. The compound further yielded an inhibition constant (Ki) on human A1R of 140 ± 86 pM. On human A2AR, the affinity, expressed as Ki, was 23 ± 14 pM and the hA1/hA2A ratio amounted to 6.09.

For the compound “Furan-2-carboxylic acid (7-imino-3-propenyl-2-thioxo-3,7-dihydro-2H-thiazolo[4,5-d]pyrimidin-6-yl)-amide [Compound 25]”, the cAMP concentration on A2A receptor stood at 0.084 nM. Besides, the values for the Ki at human A1R (setting [1]) and at human A2AR (setting [2]) were 590 ± 110 pM and 170 ± 100 pM, respectively. In addition, the hA1/hA2A ratio on human A2AR is 3.47.

On to `C=CCn1c(=S)sc2c(=N)n(NC(N)=O)cnc21` [Compound 18], for which the melting point is 202 °C. Besides, the cAMP concentration at A2A receptor is on record as 0.08 nM. Also, at human A1R, the Ki worked out at 470 ± 100 pM. Also, on human A2AR, the Ki was found to be 92 ± 10 pM and the hA1/hA2A ratio came to 5.11.

Regarding `CCCCn1c(=S)sc2c(=N)n(NC(N)=O)cnc21` [Compound 17, (7-Imino-3-butyl-2-thioxo-3,7-dihydro-2H-thiazolo[4,5-d]pyrimidin-6-yl)-urea], the melting point stood at 222 °C. The cAMP concentration at A2A receptor is recorded as 0.083 nM. Also, affinity at human A1R was put at a Ki of 1040 ± 840 pM. Moreover, at human A2AR, the affinity, expressed as Ki, was 89 ± 10 pM and the hA1/hA2A ratio was determined as 11.685.

Compound `CCCn1c(=S)sc2c(=N)n(NC(N)=O)cnc21` [Compound 16] had a melting point of 220 °C. At A2A receptor, the cAMP concentration is listed as 0.14 nM. Also, the Ki at human A1R (setting [1]) came to 2800 ± 800 pM. Besides, on human A2AR, the “selectivity over A1 adenosine receptor” value is recorded as 766 fold and the hA1/hA2A ratio is 736.84. Further, the Ki at human A2AR (setting [2]) was found to be 3.8 ± 1 pM.
